This note sets out measurements from US20250051263A1, “NOVEL IONIZABLE LIPIDS AND LIPID NANOPARTICLES AND METHODS OF USING THE SAME” (Sail Biomedicines, Inc., priority 2021, published 2025).

Series [1] can be described thus: LNP size and polydispersity, Zetasizer Ultra. The format is physicochemical. As to conditions: Example 5 LNP lipid:DOPE:Plant Cholesterol:DMPE-PEG2k 35:16:46.5:2.5, FLUC/EPO 1:1 mRNA, N:P 6:1. From the text:
(§1) All other compositions (i.e., compositions of MC3 (a commercially available ionizable lipid having a chemical name of (6Z,9Z,28Z,31Z)-heptatriacont-6,9,28,31-tetraene-19-yl 4-(dimethylamino)butanoate, and compositions of novel ionizable lipids 7669, 7671, 7668, 767, 7650) are composed of ionizable lipid:structural lipid:sterol:PEG-lipid (SDA lipid #:DSPC:cholesterol:14:0 PEG2000 PE) at a molar ratio of […], respectively. Lipids are solubilized in ethanol. Compositions are then handled as above, except the formulations are maintained at ionizable lipid to mRNA N:P ratio of 6:1. The lipid mix and mRNA solution are mixed at a 1:3 ratio by volume, respectively, on a NanoAssemblr Ignite (Precision Nanosystems) at a total flow rate of 9 mL/min. Resulting compositions are then loaded into Slide-A-Lyzer G2 dialysis cassettes (10 k MWCO) and dialyzed in 200 times sample volume of 1×PBS for 4 hrs at room temp with gentle stirring. The PBS is refreshed, and the compositions are further dialyzed for at least 14 hrs at 4° C. with gentle stirring. The dialyzed compositions are then collected and concentrated by centrifugation at 2000×g using Amicon Ultra centrifugation filters (100 k MWCO). Concentrated particles are characterized for size, polydispersity, and particle concentration using Zetasizer Ultra (Malvern Panalytical) and for mRNA encapsulation efficiency using Quant-iT RiboGreen RNA Assay Kit (ThermoFisher Scientific).
(§2) The lipid mix and mRNA solution were mixed at a 1:3 ratio by volume, respectively, on the NanoAssemblr Ignite (Precision Nanosystems) at a total flow rate of 9 mL/min. Resulting formulations were then loaded into Slide-A-Lyzer G2 dialysis cassettes (10 k MWCO) and dialyzed in 200 times sample volume of 1×PBS for 2 hrs at room temperature. The PBS was refreshed, and the formulations were further dialyzed for at least 14 hrs at 4° C. with gentle stirring. The dialyzed formulations were then collected and concentrated by centrifugation at 3000×g using Amicon Ultra centrifugation filters (100 k MWCO). The concentrated formulations were characterized for size, polydispersity, and particle concentration using Zetasizer Ultra (Malvern Panalytical) and for mRNA encapsulation efficiency using Quant-iT RiboGreen RNA Assay Kit (ThermoFisher Scientific).
(§3) For each LNP composition, the lipid mix and mRNA solution were mixed at a 1:3 ratio by volume, respectively, on a NanoAssemblr Ignite (Precision Nanosystems) at a total flow rate of 9 mL/min. The resulting compositions were then loaded into Slide-A-Lyzer G2 dialysis cassettes (10 k MWCO) and dialyzed in 200 times sample volume of 1×PBS for 2 hours at room temperature with gentle stirring. The PBS was refreshed, and the compositions were further dialyzed for at least 14 hours at 4° C. with gentle stirring. The dialyzed compositions were then collected and concentrated by centrifugation at 3000×g using Amicon Ultra centrifugation filters (100 k MWCO). The concentrated particles were characterized for size, polydispersity, and particle concentration using Zetasizer Ultra (Malvern Panalytical) and for mRNA encapsulation efficiency using Quant-iT RiboGreen RNA Assay Kit (ThermoFisher Scientific).

A short description of series [2]: mRNA encapsulation efficiency, Quant-iT RiboGreen RNA Assay. The format is physicochemical. As to conditions: Example 5 LNP lipid:DOPE:Plant Cholesterol:DMPE-PEG2k 35:16:46.5:2.5, FLUC/EPO 1:1 mRNA, N:P 6:1.
Source text: as §1, §2, §3

A further series has as its system Balb/c mice. In words: EPO levels in plasma by EPO MSD kit after IV injection of EPO mRNA LNP. The format is in vivo. As to conditions: Example 5 LNP (DOPE 35:16:46.5:2.5), 5 μg FLUC + 5 μg EPO. As for the experimental part: 8-9 week old female Balb/c mice are utilized for bioluminescence-based ionizable lipid screening efforts. Mice are obtained from Jackson Laboratories (JAX Stock: 000651) and allowed to acclimate for one week prior to manipulations. Animals are placed under a heat lamp for a few minutes before introducing them to a restraining chamber. The tail is wiped with alcohol pads (Fisher Scientific) and 100 μL of a lipid nanoparticle composition descrbed above containing 10 ug total mRNA (5 ug Fluc+5 ug EPO) is injected intravenously using a 29 G insulin syringe (Covidien). Any resulting bleeding is stemmed using a sterile gauze pad (Fisher Scientific) and animals are placed back into their home cage. 4-6 hours post-dose, animals are injected with 200 μL of 15 mg/mL D-Luciferin (GoldBio) and placed in an isoflurane induction chamber set to deliver 2.5% isoflurane delivered at an oxygen flow rate of 1-2 liters per min. After 5 minutes of isoflurane exposure, mice are placed in set nose cones inside the IVIS Lumina LT imager (PerkinElmer). LivingImage software is utilized for imaging. Whole body bio-luminescence is captured at auto-exposure after which animals are removed from the IVIS and placed into a CO2 chamber for euthanasia. Cardiac puncture is performed on each animal after placing it in dorsal recumbency, and blood collection is performed using a 25 G insulin syringe (BD). Blood is collected in Lithium-Heparin coated tubes (Fisher Scientific) and immediately placed on ice. Once all blood samples are collected, tubes are spun at 2000 G for 10 minutes using a tabletop centrifuge and plasma is aliquoted into individual Eppendorf tubes (Fisher Scientific) and stored at −80 C for subsequent EPO quantification. EPO levels in plasma are determined using EPO MSD kit (Meso Scale Diagnostics).
8-9 week old female Balb/c mice were utilized for bioluminescence-based ionizable lipid screening efforts. Mice were obtained from Jackson Laboratories (JAX Stock: 000651) and allowed to acclimate for one week prior to manipulations. Animals were placed under a heat lamp for a few minutes before introducing them to a restraining chamber. The tail was wiped with alcohol pads (Fisher Scientific) and, for each LNP composition descrbed above, 100 μL of a lipid nanoparticle composition descrbed above containing 10 μg total mRNA (5 μg Fluc+5 μg EPO, 5 μg Fluc+5 μg Cre, or 5 μg EGFP) was injected intravenously using a 29 G insulin syringe (Covidien).
4-6 hours post-dose, animals were injected with 200 μL of 15 mg/mL D-Luciferin (GoldBio), and placed in set nose cones inside the IVIS Lumina LT imager (PerkinElmer). LivingImage software was utilized for imaging. Whole body bio-luminescence was captured at auto-exposure after which animals are removed from the IVIS and placed into a CO2 chamber for euthanasia. Cardiac puncture was performed on each animal after placing it in dorsal recumbency, and blood collection was performed using a 25 G insulin syringe (BD). Once all blood samples were collected, tubes are spun at 2000 G for 10 minutes using a tabletop centrifuge and plasma was aliquoted into individual Eppendorf tubes (Fisher Scientific) and stored at −80° C. for subsequent EPO quantification. EPO levels in plasma were determined using EPO MSD kit (Meso Scale Diagnostics).

`CCCCCCCCCCCC(=O)OCCCCCN(CCCCCCCC(=O)OC(CCCCCCCC)CCCCCCCC)CCNC(=O)CCC(=O)NCCN(CCCCCCCC(=O)OC(CCCCCCCC)CCCCCCCC)CCCCCOC(=O)CCCCCCCCCCC` [Compound 2354, 5-[2-[[4-[2-[5-dodecanoyloxypentyl-[8-(1-octylnonoxy)-8-oxo-octyl]amino]ethylamino]-4-oxo-butanoyl]amino]ethyl-[8-(1-octylnonoxy)-8-oxo-octyl]amino] pentyl dodecanoate]: in series [1], the PDI was found to be 0.10 and the “Size (nm)” value was determined as 69.2 nm. Further, the “% EE” value in series [2] was 94.6%. Also, the hEPO in the series on Balb/c mice was 1.4E+06.

`CCCCCCCCCCCOC(=O)CCCCCN(CCCCCCCC(=O)OC(CCCCCCCC)CCCCCCCC)CCNC(=O)NCCN(CCCCCCCC(=O)OC(CCCCCCCC)CCCCCCCC)CCCCCC(=O)OCCCCCCCCCCC` [Compound 2246, 1-octylnonyl8-[2-[2-[[8-(1-octylnonoxy)-8-oxo-octyl]-(6-oxo-6-undecoxy-hexyl)amino]ethylcarbamoylamino]ethyl-(6-oxo-6-undecoxy-hexyl)amino]octanoate]: in series [1], the PDI is 0.05 and the “Size (nm)” value stood at 62.7 nm. Further, the “% EE” value in series [2] was found to be 94.9%. Moreover, in the series with Balb/c mice, the hEPO is on record as 3.6E+06.

`CCCCCCCCCC(=O)OCCCCCCCN(CCCCCCCC(=O)OC(CCCCCCCC)CCCCCCCC)CCNC(=O)CCC(=O)NCCN(CCCCCCCOC(=O)CCCCCCCCC)CCCCCCCC(=O)OC(CCCCCCCC)CCCCCCCC` [Compound 2272, 7-[2-[[4-[2-[7-decanoyloxyheptyl-[8-(1-octylnonoxy)-8-oxo-octyl]amino]ethylamino]-4-oxo-butanoyl]amino]ethyl-[8-(1-octylnonoxy)-8-oxo-octyl]amino]heptyl decanoate]: in series [1], the PDI came to 0.07 and the “Size (nm)” value was found to be 68.7 nm. Further, in series [2], the “% EE” value is on record as 92.6%. Moreover, in the series on Balb/c mice, the hEPO is recorded as 1.8E+06.

As to `CCCCCCCCCCCOC(=O)CCCCCN(CCCCCCCC(=O)OC(CCCCCCCC)CCCCCCCC)CCCNC(=O)CN(CC(=O)NCCCN(CCCCCCCC(=O)OC(CCCCCCCC)CCCCCCCC)CCCCCC(=O)OCCCCCCCCCCC)C(=O)CCN1CCCC1` [Compound 2353, 1-octylnonyl8-[3-[[2-[[2-[3-[[8-(1-octylnonoxy)-8-oxo-octyl]-(6-oxo-6-undecoxy-hexyl)amino]propylamino]-2-oxo-ethyl]-(3-pyrrolidin-1-ylpropanoyl)amino]acetyl]amino]propyl-(6-oxo-6-undecoxy-hexyl)amino]octanoate], in series [1], the PDI stood at 0.14 and the “Size (nm)” value is on record as 85.2 nm. The “% EE” value in series [2] is reported as 97.0%. Further, the hEPO in the series on Balb/c mice came out at 9.7E+03.

In the case of `CCCCCCCCCCCOC(=O)CCCCCN(CCCCCCCC(=O)OCCCC(CCCCC)CCCCC)CCN1CCN(CCN(CCCCCCCC(=O)OCCCC(CCCCC)CCCCC)CCCCCC(=O)OCCCCCCCCCCC)CC1` [Compound 2397, 4-pentylnonyl 8-[2-[4-[2-[[8-oxo-8-(4-pentylnonoxy)octyl]-(6-oxo-6-undecoxy-hexyl)amino]ethyl]piperazin-1-yl]ethyl-(6-oxo-6-undecoxy-hexyl)amino]octanoate], in series [1], the PDI came out at 0.09 and the “Size (nm)” value is on record as 114.0 nm. Further, in series [2], the “% EE” value was 94.0%. In the series on Balb/c mice, the hEPO is 1.5E+06.

Turning to `CCCCCCCCCCC(CC)OC(=O)CCCCCN(CCCCCCCC(=O)OC(CCCCCCCC)CCCCCCCC)CCNC(=O)CCC(=O)NCCN(CCCCCCCC(=O)OC(CCCCCCCC)CCCCCCCC)CCCCCC(=O)OC(CC)CCCCCCCCCC` (stereo not drawn) [Compound 2356, 1-octylnonyl 8-[[6-(1-ethylundecoxy)-6-oxo-hexyl]-[2-[[4-[2-[[6-(1-ethylundecoxy)-6-oxo-hexyl]-[8-(1-octylnonoxy)-8-oxo-octyl]amino]ethylamino]-4-oxo-butanoyl]amino]ethyl]amino]octanoate], in series [1], the PDI was found to be 0.10 and the “Size (nm)” value is listed as 74.2 nm. The “% EE” value in series [2] amounted to 95.0%. The hEPO in the series with Balb/c mice came out at 1.3E+08.
